# Earlier results in patent publication US20050118235A1, “Dietary non-essential amino acid tyrosine regulates the body weight of animals through regulating the animal appetite or food intake” (priority 2003, published 2005).
# Test system: activity anorexia in mice
# Conditions: tyrosine injection, activity anorexia in mice (Avraham et al. 2001)
smiles,measurement,value
N[C@@H](Cc1ccc(O)cc1)C(=O)O [Tyrosine],"effect on appetite, cognition and exercise tolerance","improves appetite, cognition, and exercise tolerance"
